Measured values: article PMC9869995, “Discovery of benzochromene derivatives first example with dual cytotoxic activity against the resistant cancer cell MCF-7/ADR and inhibitory effect of the P-glycoprotein expression levels” (Journal of Enzyme Inhibition and Medicinal Chemistry, 2023)

Tests used:
MCF-7 = experiment: MTT cell viability assay, MCF-7; assay type: cell-based; details: Homo sapiens, MCF7, 24 h incubation, mean ± standard error
Text: (§1) According to previous reports regarding the cytotoxic features of a numerous array of benzochromene scaffolds, compounds 4a − z have been elected to explore their cytotoxic ability against three tumour cell lines, including HCT-116 (colon cancer), MCF-7 (breast cancer), and HepG-2 (hepatocellular cancer), and employing the 3–(4,5-dimethylthiazol-2-yl)-2,5-diphenyl tetrazolium bromide (MTT) colorimetric assay as described in literature. Judges choice of such cell lines has been stimulated by the acknowledged antitumor performance of a substantial number of 1H-benzo[f]chromene and 4H-benzo[h]chromene molecules towards the asserted cell lines. […] Moreover, benzochromene derivatives with highly cytotoxic behaviour, 4a − d, 4g, 4i, 4k, 4n, 4q, 4 u, and 4w, are subjected to further inspection against ADR-resistant human breast cancer cells (MCF-7/ADR) and the two normal cell lines, HFL-1 and human diploid fibroblasts (WI-38). […] Also, the results are illustrated in Table 4.
(§2) The tumour cell lines MCF-7, HepG-2, and […] were obtained from the American Type Culture Collection (ATCC, Rockville, MD). The cells were grown on RPMI-1640 medium supplemented with 10% inactivated foetal calf serum and 50 µg/mL gentamycin. The cells were maintained at 37 °C in a humidified atmosphere with 5% CO2 and were subculture two to three times a week.
(§3) The cytotoxic activity was appraised, using the 3–(4,5-dimethylthiazol-2-yl)-2,5-diphenyl-tetrazolium bromide (MTT) colorimetric assay, as reported previously[57] and ELISA assay for MCF-7/ADR[75].

WI-38 = experiment: Cytotoxicity against normal cell line WI-38; assay type: cell-based; details: Homo sapiens, 24 h, mean ± standard error
Text: as §1, §3

MCF-7/ADR = experiment: Cytotoxicity against ADR-resistant breast cancer cells; assay type: cell-based, human; details: 24 h exposure, mean ± standard error
Text: as §1, §3

HepG-2 = experiment: MTT cell viability assay, HepG-2; assay type: cell-based; details: Homo sapiens, HepG2, 24 h incubation, mean ± standard error
Text: as §1, §2, §3

HFL-1 = experiment: Cytotoxicity against normal cell line HFL-1; assay type: cell-based; details: Homo sapiens, HFL1, 24 h, mean ± standard error
Text: as §1, §3

HCT-116 = experiment: MTT cell viability assay, HCT-116; assay type: cell-based; details: Homo sapiens, 24 h incubation, mean ± standard error
Text: as §1, §3

[1] = Homo sapiens, NCI/ADR-RES, 24 h

Structure (SMILES) | IC50 (MCF-7) [µM] | IC50 (WI-38) [µM] | IC50 (MCF-7/ADR; [1]) [µM] | IC50 (HepG-2) [µM] | melting point [°C] | IC50 (HFL-1) [µM] | IC50 (HCT-116) [µM] | IC50 (MCF-7/ADR) [µM]
COc1ccc2ccc3c(c2c1)C(c1ccc(F)cc1)C(C#N)=C(N)O3 (centres unmarked) [4a, 3-Amino-1–(4-fluorophenyl)-9-methoxy-1H-benzo[f]chromene-2-carbonitrile] | 16.5 ± 0.1 | 56.7 ± 1.1 | 24.4 ± 1.2 | 11.3 ± 0.1 | 267 to 268 | 45.1 ± 0.2 | 6.4 ± 0.1 | 
COc1ccc2ccc3c(c2c1)C(c1ccccc1Br)C(C#N)=C(N)O3 (centres unmarked) [4e, 3-Amino-1–(2-bromophenyl)-9-methoxy-1H-benzo[f]chromene-2-carbonitrile] | 8.3 ± 0.6 | 59.1 ± 1.1 |  | 4.9 ± 0.2 | 273 to 275 | 49.5 ± 1.1 | 5.9 ± 0.4 | 
COc1ccc2ccc3c(c2c1)C(c1cccc(Br)c1)C(C#N)=C(N)O3 (centres unmarked) [4f, 3-Amino-1–(3-bromophenyl)-9-methoxy-1H-benzo[f]chromene-2-carbonitrile] | 69.2 ± 0.3 |  |  | 63.6 ± 3.2 | 263 to 265 |  | 11.5 ± 1.1 | 
COc1ccc2ccc3c(c2c1)C(c1ccc(Br)cc1)C(C#N)=C(N)O3 (centres unmarked) [4g, 3-Amino-1–(4-bromophenyl)-9-methoxy-1H-benzo[f]chromene-2-carbonitrile] | 5.6 ± 0.1 | 69 ± 1.1 | 19.6 ± 1 | 2 ± 0.1 | 252 to 253 | 65.3 ± 0.1 | 2.2 ± 0.1 | 
COc1ccc2ccc3c(c2c1)C(c1ccc(I)cc1)C(C#N)=C(N)O3 (centres unmarked) [4h, 3-Amino-1–(4-iodophenyl)-9-methoxy-1H-benzo[f]chromene-2-carbonitrile] | 48.4 ± 0.1 |  |  | 39.2 ± 0.2 | 227 to 228 |  | 27.7 ± 0.3 | 
COc1ccc2ccc3c(c2c1)C(c1ccc(C)cc1)C(C#N)=C(N)O3 (centres unmarked) [4i, 3-Amino-1–(4-methylphenyl)-9-methoxy-1H-benzo[f]chromene-2-carbonitrile] | 7 ± 0.1 | 61.7 ± 0.1 | 42.8 ± 2.4 | 8.8 ± 0.2 | 245 to 246 | 71.6 ± 0.3 | 2.9 ± 0.1 | 
COc1ccc2ccc3c(c2c1)C(c1ccc(C(F)(F)F)cc1)C(C#N)=C(N)O3 (centres unmarked) [4j, 3-Amino-1–(4-trifluoromethylphenyl)-9-methoxy-1H-benzo[f]chromene-2-carbonitrile] | 26.8 ± 1.8 |  |  | 5.3 ± 0.1 | 212 to 214 |  | 20.2 ± 1.1 | 
COc1ccc2ccc3c(c2c1)C(c1c(F)cccc1F)C(C#N)=C(N)O3 (centres unmarked) [4l, 3-Amino-1–(2,6-difluorophenyl)-9-methoxy-1H-benzo[f]chromene-2-carbonitrile] | 15.4 ± 0.2 |  |  | 28.5 ± 0.4 | 305 to 306 |  | 77.7 ± 0.3 | 
COc1ccc2ccc3c(c2c1)C(c1cccc(Cl)c1Cl)C(C#N)=C(N)O3 (centres unmarked) [4m, 3-Amino-1–(2,3-dichlorophenyl)-9-methoxy-1H-benzo[f]chromene-2-carbonitrile] | 9.1 ± 0.2 |  |  | 11.8 ± 0.2 | 310 to 311 |  | 42 ± 0.2 | 
COc1ccc2ccc3c(c2c1)C(c1ccc(Cl)cc1Cl)C(C#N)=C(N)O3 (centres unmarked) [4n, 3-Amino-1–(2,4-dichlorophenyl)-9-methoxy-1H-benzo[f]chromene-2-carbonitrile] | 1.8 ± 0.1 | 61.9 ± 0.3 | 10.9 to 15.5 | 7.3 ± 0.2 | 261 to 262 | 71.7 ± 0.1 | 1.7 ± 0.2 | 15.5 ± 0.2
COc1ccc2ccc3c(c2c1)C(c1cc(Cl)ccc1Cl)C(C#N)=C(N)O3 (centres unmarked) [4o, 3-Amino-1–(2,5-dichlorophenyl)-9-methoxy-1H-benzo[f]chromene-2-carbonitrile] | 3.8 ± 0.3 |  |  | 46.6 ± 0.1 | 268 to 269 |  | 8.3 ± 0.2 | 
COc1ccc2ccc3c(c2c1)C(c1c(Cl)cccc1Cl)C(C#N)=C(N)O3 (centres unmarked) [4p, 3-Amino-1–(2,6-dichlorophenyl)-9-methoxy-1H-benzo[f]chromene-2-carbonitrile] | 41.5 ± 0.1 |  |  | 25.9 ± 0.3 | 321 to 322 |  | 18.9 ± 0.2 | 
COc1ccc2ccc3c(c2c1)C(c1cc(Br)ccc1Br)C(C#N)=C(N)O3 (centres unmarked) [4r, 3-Amino-1–(2,5-dibromophenyl)-9-methoxy-1H-benzo[f]chromene-2-carbonitrile] | 4.9 ± 0.5 | 33.9 ± 0.4 |  | 6.8 ± 0.5 | 260 to 262 | 38.1 ± 0.2 | 5.3 ± 0.4 | 
COc1ccc2ccc3c(c2c1)C(c1cc(Br)cc(Br)c1)C(C#N)=C(N)O3 (centres unmarked) [4s, 3-Amino-1–(3,5-dibromophenyl)-9-methoxy-1H-benzo[f]chromene-2-carbonitrile] | 13.6 ± 0.2 |  |  | 13.4 ± 1.1 | 268 to 270 |  | 15 ± 2.6 | 
COc1ccc2ccc3c(c2c1)C(c1c(F)cccc1Cl)C(C#N)=C(N)O3 (centres unmarked) [4t, 3-Amino-1–(2-chloro-6-fulorophenyl)-9-methoxy-1H-benzo[f]chromene-2-carbonitrile] | 100 ± 1.3 |  |  | 48.1 ± 1.3 | 292 to 294 |  | 96.5 ± 2 | 
COc1ccc2ccc3c(c2c1)C(c1ccc(C(F)(F)F)cc1F)C(C#N)=C(N)O3 (centres unmarked) [4u] | 0.2 | 60.3 ± 0.1 | 19.7 ± 0.8 | 10.6 ± 0.9 | 237 to 239 | 55.3 ± 0.1 | 14.7 ± 2.3 | 
COc1ccc(C2C(C#N)=C(N)Oc3ccc4ccc(OC)cc4c32)c(OC)c1 (centres unmarked) [4v, 3-Amino-1–(2,4-dimethoxyphenyl)-9-methoxy-1H-benzo[f]chromene-2-carbonitrile] | 100 ± 0.2 |  |  | 93.2 ± 0.2 | 218 to 220 |  | 49.9 ± 0.5 | 
COc1ccc2ccc3c(c2c1)C(c1ccc(OC)c(OC)c1OC)C(C#N)=C(N)O3 (centres unmarked) [4x, 3-Amino-1–(2,3,4-trimethoxyphenyl)-9-methoxy-1H-benzo[f]chromene-2-carbonitrile] | 96.1 ± 0.6 |  |  | 59.7 ± 0.3 | 239 to 240 |  | 36.6 ± 0.1 | 
COc1ccc2ccc3c(c2c1)C(c1cc(OC)c(OC)c(OC)c1)C(C#N)=C(N)O3 (centres unmarked) [4y, 3-Amino-1–(3,4,5-trimethoxyphenyl)-9-methoxy-1H-benzo[f]chromene-2-carbonitrile] | 26.1 ± 0.1 | 29.9 ± 0.4 |  | 8.8 ± 0.2 | 260 to 261 | 34.1 ± 0.2 | 15.4 ± 0.1 | 
COc1ccc2ccc3c(c2c1)C(c1cc(Br)cc(Br)c1OC)C(C#N)=C(N)O3 (centres unmarked) [4z, 3-Amino-1–(3,5-dibromo-2-methoxyphenyl)-9-methoxy-1H-benzo[f]chromene-2-carbonitrile] | 5.8 ± 0.04 | 39.6 ± 0.4 |  | 3.5 ± 0.2 | 263 to 264 | 33.3 ± 0.1 | 6.8 ± 0.1 | 
CC[C@]1(O)C[C@@H]2CN(CCc3c([nH]c4ccccc34)[C@@](C(=O)OC)(c3cc4c(cc3OC)N(C)[C@H]3[C@@](O)(C(=O)OC)[C@H](OC(C)=O)[C@]5(CC)C=CCN6CC[C@]43[C@@H]65)C2)C1 [Vinblastine, reference compound] | 7.5 ± 0.03 |  |  | 5.7 ± 0.1 |  |  | 3.2 ± 0.1 | 
